Values after ≈ are worked out from the molar mass of the structure shown. Active and inactive are the calls of the source. The calls are words filed in the database; no cut-off is given here.
What was measured:
[1] = Cytotoxicity against mouse J774A1 cells by MTT assay; format: cell-based, J774.A1
[2] = system: Leishmania donovani; assay: Antileishmanial activity against amastigotes of Leishmania donovani; format: functional, organism-based
[3] = system: Leishmania donovani; assay: Antileishmanial activity against promastigotes of Leishmania donovani at 10 ug/ml; format: functional
[4] = (§1) Selectivity index, ratio of CC50 for mouse J774A1 cells to IC50 for amastigotes of Leishmania donovani; format: functional, J774.A1
[5] = system: Leishmania donovani; assay: Antileishmanial activity against amastigotes of Leishmania donovani at 10 ug/ml; format: functional, organism-based
[6] = system: Leishmania donovani; assay: Antileishmanial activity against Leishmania donovani infected in Hamster assessed as inhibition of parasites growth at 50 mg/kg, ip for 5 times; format: functional; conditions: for inhibition in vivo at 50 mg/kg: route intraperitoneal
[7] = system: J774.A1; assay: as §1; format: functional

Compound	IC50 [2] [µg/mL]	CC50 [1] [µg/mL]	inhibition at 10 µg/mL [3] [%]	Ratio CC50/IC50 [4]	inhibition [5]	inhibition in vivo at 50 mg/kg [6] [%]	Ratio CC50/IC50 [7]	inhibition [6] [%]
O[C@H]1CCc2ccccc2[C@@H]1n1ccnn1 (racemic)		35.6 (≈ 165 µM)	90.4		inactive			
FC(F)(F)c1ccc(O[C@H]2CCc3ccccc3[C@@H]2n2ccnc2)cc1 (racemic)		52.5 (≈ 146 µM)	60		inactive			
Clc1ccc(Cl)c(CO[C@H]2CCc3ccccc3[C@@H]2n2ccnc2)c1 (racemic)	0.64 (≈ 1.71 µM)	22.3 (≈ 59.6 µM)	100	34.78		83.3		
O=[N+]([O-])c1ccc(O[C@H]2CCc3ccccc3[C@@H]2n2ccnn2)cc1 (racemic)		> 100	99.6		inactive			
O=[N+]([O-])c1ccc(O[C@H]2CCc3ccccc3[C@@H]2n2ccnn2)c(F)c1 (racemic)		> 100	100		inactive			
FC(F)(F)c1ccc(O[C@H]2CCCC[C@@H]2n2ccnc2)cc1 (racemic)			99.8		inactive			
Clc1ccc(CO[C@H]2CCCC[C@@H]2n2ccnc2)c(Cl)c1 (racemic)	2.44 (≈ 7.5 µM)	3.43 (≈ 10.5 µM)	99.5	1.41				
NC[C@@H]1O[C@H](O[C@H]2[C@@H](O)[C@H](O[C@@H]3[C@@H](O)[C@H](N)C[C@H](N)[C@H]3O[C@H]3O[C@H](CO)[C@@H](O)[C@H](O)[C@H]3N)O[C@@H]2CO)[C@H](N)[C@@H](O)[C@@H]1O [PAROMOMYCIN]	24.8 (≈ 40.3 µM)	53.3 (≈ 86.6 µM)	124	2.15		46.7		
sodium stibogluconate							6.38	92.2

Now from value to compound, other results behind:

IC50 [2] [µg/mL]	Compound	CC50 [1] [µg/mL]	inhibition at 10 µg/mL [3] [%]	Ratio CC50/IC50 [4]	inhibition [5]	inhibition in vivo at 50 mg/kg [6] [%]	Ratio CC50/IC50 [7]	inhibition [6] [%]
2.15 (≈ 7.04 µM)	O=[N+]([O-])c1ccc(O[C@H]2CCCC[C@@H]2n2ccnc2)c(F)c1 (racemic)	14.2 (≈ 46.7 µM)	95.7	6.62				
> 50	O[C@H]1CCc2ccccc2[C@@H]1n1ccnc1 (racemic)	> 100	60	2				
4.53 (≈ 13.5 µM)	O=[N+]([O-])c1ccc(O[C@H]2CCc3ccccc3[C@@H]2n2ccnc2)cc1 (racemic)	21.4 (≈ 63.9 µM)	94.9	4.73				
1.59 (≈ 3.94 µM)	O=[N+]([O-])c1ccc(O[C@H]2CCc3ccccc3[C@@H]2n2ccnc2)c(C(F)(F)F)c1 (racemic)	10.7 (≈ 26.5 µM)	91.2	6.73				
6.52 (≈ 18.5 µM)	O=[N+]([O-])c1ccc(O[C@H]2CCc3ccccc3[C@@H]2n2ccnc2)c(F)c1 (racemic)	32.1 (≈ 90.9 µM)	100	4.92				
3.58 (≈ 8.88 µM)	O=[N+]([O-])c1cc(C(F)(F)F)ccc1O[C@H]1CCc2ccccc2[C@@H]1n1ccnc1 (racemic)	20.1 (≈ 49.8 µM)	99.6	5.61				
1.34 (≈ 3.95 µM)	Clc1cccc(CO[C@H]2CCc3ccccc3[C@@H]2n2ccnc2)c1 (racemic)	15.5 (≈ 45.6 µM)	100	11.53		32.1		
3.01 (≈ 8.86 µM)	Clc1cccc(CO[C@H]2CCc3ccccc3[C@@H]2n2ccnn2)c1 (racemic)	30.2 (≈ 88.9 µM)	100	10.03				
2.23 (≈ 7.76 µM)	O=[N+]([O-])c1ccc(O[C@H]2CCCC[C@@H]2n2ccnc2)cc1 (racemic)	8.27 (≈ 28.8 µM)	98.6	3.7				
5.07 (≈ 14.3 µM)	O=[N+]([O-])c1cc(C(F)(F)F)ccc1O[C@H]1CCCC[C@@H]1n1ccnc1 (racemic)	22.1 (≈ 62.3 µM)	99	4.36				
1.4 (≈ 4.83 µM)	Clc1cccc(CO[C@H]2CCCC[C@@H]2n2ccnc2)c1 (racemic)	12.8 (≈ 43.9 µM)	96.9	9.1				
4.03 (≈ 12.4 µM)	Clc1ccc(Cl)c(CO[C@H]2CCCC[C@@H]2n2ccnc2)c1 (racemic)	27.2 (≈ 83.5 µM)	89.6	6.73				
